Counter-ions that a name gives are not always drawn.

The results in this text go back to patent publication US20260133203A1, “DETECTION OF FUMARATE-DERIVED MODIFICATION IN A TEST SAMPLE” (UNIVERSITY OF SOUTH CAROLINA, priority 2017, published 2026).

In assay [1] the test system is heme oxygenase 1 (HO-1). Briefly: Western blot of HO-1 expression after DMF treatment. The class given is cell-based. As to the method: N1E-115 cells (subclone N1E-115-1 neuroblastoma cells) were obtained from Sigma (08062511, St. Louis, MO). The cells were grown and expanded in non-differentiation medium (NDM): 90% DMEM (Gibco™, Grand Island, NY) with 25 mM glucose, no pyruvate, 25 mM HEPES, 4 mM glutamine and 10% fetal bovine serum (FBS, Atlanta Biologicals, Atlanta, GA). At 80% confluence, the cells were differentiated into neurons in the presence of 2% FBS and 1.25% dimethyl sulfoxide in DMEM for 5 days. In addition to the assessment of the neuronal phenotype by light microscopy, the detection of synaptophysin protein levels was used to confirm successful differentiation. During the final 6 or 24 hours of differentiation, the cells were treated with 10-100 µM DMF and harvested as described above for primary neurons, with the addition of phosphatase inhibitors to the DPBS washes and the RIPA buffer used for scraping to prevent dephosphorylation of CRMP-2. […] To ensure that the succinated proteins detected were solely of neuronal origin, N1E-115 neuroblastoma cells were differentiated to a neuronal phenotype (confirmed by increased synaptophysin content) and treated with DMF for 24 hours. […]
Background: Immunoblotting shows a protein as a band on a membrane.

Assay [2] has as its target T1, Collapsin Response Mediator 2 (CRMP2) (Rattus norvegicus, UniProt P47942).
T1 construct: Primary neurons from newborn rat brain cortices were isolated and cultured; endogenous in cells; host or cells: primary rat cortical neurons (postnatal day 1)
Briefly: LC-MS/MS site mapping of CRMP2 peptide GLYDGPVCEVSVTPK succination. Format: cell-based. To be noted: primary rat neurons, +2 charge-state, y8 and b8 fragment ions. As to the method: Primary neurons from newborn rat brain cortices were isolated and cultured using an adaptation of methods described previously. Briefly, postnatal day 1 rats were sacrificed by decapitation, the brains were aseptically dissected, and cortices were separated from the rest of the brain in ice-cold Hibernate®-A medium (Life Technologies) containing 2% (v/v) B-27 supplement (Life Technologies) and 0.5 mM glutamine (Invitrogen™). The tissue was minced in fragments of about 1 mm3 with a scalpel and subjected to digestion with 2 mg/ml papain (Worthington) in the supplemented Hibernate®-A medium for 20 minutes at 30° C. in a shaker incubator set at 100 rpm. After thorough trituration through a fire-polished Pasteur pipette, the tissue was allowed to settle for 5 minutes and the supernatant was carefully layered on top of a discontinuous OptiPrep™ (Sigma-Aldrich™) gradient prepared in Hibernate®-A medium; the layers contained 35, 25, 20 and 15% OptiPrep™. […] After a centrifugation at 500 g for 5 min at room temperature, cells were resuspended in Neurobasal™—A medium containing 0.5 mM glutamine, 2% B-27 supplement, and 5 ng/ml bFGF (Invitrogen™); counted and plated on 24-well plates pretreated with 0.01% poly-L-lysine (Sigma-Aldrich™) at a density of 200,000 cells/well. […] The protein content in the different samples was determined by the Lowry assay. […]

As for `COC(=O)/C=C/C(=O)OC` [DMF, dimethyl fumarate], the HO-1 expression result in assay [1] is “significantly induced HO-1 expression”. In addition, the “site of succination on CRMP2” value in assay [2] is “Cys504”.
